# Laboratory results as given in PubChem BioAssay AID248 (DTP/NCI, 2004).
# Where “and” joins values, the source holds several entries; their conditions need not be identical. Identical values can stand only once. Toxic doses and inconclusive results are not listed.
# Tested on: L1210 leukemia ip in BDF1 mice, survival T/C
# Experiment: NCI In Vivo Anticancer Drug Screen. Data for tumor model L1210 Leukemia (intraperitoneal) in B6D2F1 (BDF1) mice
# Conditions: endpoint: mean survival time, higher = longer survival
# How it was run: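 Antitumor effect is assessed in tumor-bearing animals. Survival in the compound arm is compared with a vehicle-dosed control arm and expressed as their quotient.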
# [1] = dose: 100.0 mg/kg/injection, schedule: Q01DX001 (ip), vehicle: carboxymethylcellulose (CMC)
# [2] = dose: 200.0 mg/kg/injection, schedule: Q01DX001 (ip), vehicle: carboxymethylcellulose (CMC)
# [3] = dose: 400.0 mg/kg/injection, schedule: Q01DX001 (ip), vehicle: carboxymethylcellulose (CMC)
# [4] = dose: 100.0 mg/kg/injection, schedule: Q01DX009 (ip), vehicle: Klucel (hydroxypropylcellulose) (HPC)
# [5] = dose: 200.0 mg/kg/injection, schedule: Q01DX009 (ip), vehicle: Klucel (hydroxypropylcellulose) (HPC)
# [6] = dose: 400.0 mg/kg/injection, schedule: Q01DX009 (ip), vehicle: Klucel (hydroxypropylcellulose) (HPC)
# [7] = dose: 100.0 mg/kg/injection, schedule: Q01DX009 (ip), vehicle: saline with Tween-80
# [8] = dose: 200.0 mg/kg/injection, schedule: Q01DX009 (ip), vehicle: saline with Tween-80
# [9] = dose: 100.0 mg/kg/injection, schedule: Q04DX003 (ip), vehicle: saline with Tween-80
# [10] = dose: 200.0 mg/kg/injection, schedule: Q04DX003 (ip), vehicle: saline with Tween-80
# [11] = dose: 400.0 mg/kg/injection, schedule: Q04DX003 (ip), vehicle: saline with Tween-80
# [12] = dose: 100.0 mg/kg/injection, schedule: Q04DX003 (ip), vehicle: saline
# [13] = dose: 200.0 mg/kg/injection, schedule: Q04DX003 (ip), vehicle: saline
# [14] = dose: 400.0 mg/kg/injection, schedule: Q04DX003 (ip), vehicle: saline
# [15] = dose: 100.0 mg/kg/injection, schedule: Q04DX003 (ip), vehicle: Klucel (hydroxypropylcellulose) (HPC)
# [16] = dose: 100.0 mg/kg/injection, schedule: Q01DX001 (ip), vehicle: saline
# [17] = dose: 200.0 mg/kg/injection, schedule: Q01DX001 (ip), vehicle: saline
# [18] = dose: 400.0 mg/kg/injection, schedule: Q01DX001 (ip), vehicle: saline
compound,measurement,setting,value
CCCCCCCCCCCCCCCCS(=O)(=O)N/N=C/c1ccc(N(C)C)cc1,T/C,[1],92 % of control
same,T/C,[2],87 % of control
same,T/C,[3],89 % of control
CCOC(=O)Nc1ccccc1OCC,T/C,[4],96 % of control
same,T/C,[5],95 % of control
same,T/C,[6],96 % of control
S=C(NC1CC2C=CC1C2)N1CCCCC1 (configuration not stated),T/C,"dose: 50.0 mg/kg/injection, schedule: Q01DX009 (ip), vehicle: saline with Tween-80",106 % of control
same,T/C,[7],100 % of control
same,T/C,[8],95 % of control
CCCCCCC(C)C(COC(=O)c1ccc([N+](=O)[O-])cc1)NCC (configuration not stated),T/C,"dose: 75.0 mg/kg/injection, schedule: Q01DX001 (ip), vehicle: saline",93 % of control
same,T/C,"dose: 150.0 mg/kg/injection, schedule: Q01DX001 (ip), vehicle: saline",96 % of control
CC(=O)Nc1ccc2[nH]c(C)cc(=O)c2c1,T/C,"dose: 100.0 mg/kg/injection, schedule: Q01DX009 (ip), vehicle: water",98 % of control
same,T/C,"dose: 100.0 mg/kg/injection, schedule: Q04DX003 (ip), vehicle: water",110 % of control
same,T/C,"dose: 200.0 mg/kg/injection, schedule: Q01DX009 (ip), vehicle: water",96 % of control
same,T/C,"dose: 200.0 mg/kg/injection, schedule: Q04DX003 (ip), vehicle: water",110 % of control
same,T/C,"dose: 400.0 mg/kg/injection, schedule: Q01DX009 (ip), vehicle: water",100 % of control
same,T/C,"dose: 400.0 mg/kg/injection, schedule: Q04DX003 (ip), vehicle: water",107 % of control
OCC1OC(n2cc(Br)c3c(=S)nc[nH]c32)C(O)C1O (configuration not stated),T/C,[1],104 % of control
same,T/C,[2],110 % of control
same,T/C,[3],106 % of control
BrC1(Br)C2CC3C(CC21)C1CC2C(CC31)C2(Br)Br (configuration not stated),T/C,[7],97 % of control
same,T/C,[9],94 % of control
same,T/C,[8],96 % of control
same,T/C,[10],95 % of control
same,T/C,"dose: 400.0 mg/kg/injection, schedule: Q01DX009 (ip), vehicle: saline with Tween-80",105 % of control
same,T/C,[11],92 % of control
O=C(Nc1cccc(O)c1)c1ccc([N+](=O)[O-])cc1,T/C,[4],93 % of control
same,T/C,[5],90 % of control
same,T/C,[6],90 % of control
Cc1nc(C)c2c(c1C)-c1ccccc1C2=O,T/C,"dose: 50.0 mg/kg/injection, schedule: Q01DX009 (ip), vehicle: other",104 % of control
same,T/C,"dose: 50.0 mg/kg/injection, schedule: Q01DX009 (ip), vehicle: saline + alcohol",108 % of control
same,T/C,"dose: 100.0 mg/kg/injection, schedule: Q01DX009 (ip), vehicle: other",100 % of control
same,T/C,"dose: 100.0 mg/kg/injection, schedule: Q01DX009 (ip), vehicle: saline + alcohol",106 % of control
same,T/C,[12],102 % of control
same,T/C,"dose: 200.0 mg/kg/injection, schedule: Q01DX009 (ip), vehicle: other",100 % of control
same,T/C,"dose: 200.0 mg/kg/injection, schedule: Q01DX009 (ip), vehicle: saline + alcohol",108 % of control
same,T/C,[13],101 % of control
same,T/C,"dose: 400.0 mg/kg/injection, schedule: Q01DX009 (ip), vehicle: other",107 % of control
same,T/C,"dose: 400.0 mg/kg/injection, schedule: Q01DX009 (ip), vehicle: saline + alcohol",98 % of control
same,T/C,[14],107 % of control
same,T/C,"dose: 500.0 mg/kg/injection, schedule: Q01DX009 (ip), vehicle: other",95 % of control
CCOC(=O)/C(N=O)=C(/O)c1ccccc1,T/C,[9],103 % of control
same,T/C,[10],94 % of control
same,T/C,[11],96 % of control
O=C(c1cccnc1)N1CCCC1,T/C,[4],113 % of control
same,T/C,[5],109 % of control
same,T/C,[6],98 % of control
O=C1CCCCCCCCC(=O)CCCCCCCC1,T/C,[9],89 % of control
same,T/C,[10],86 % of control
same,T/C,[11],100 % of control
Clc1ccc(Cl)c(/C=C/c2ccc(Cl)c(Cl)c2)c1,T/C,"dose: 1.56 mg/kg/injection, schedule: Q01DX009 (ip), vehicle: Klucel (hydroxypropylcellulose) (HPC)",97 % of control
same,T/C,"dose: 3.12 mg/kg/injection, schedule: Q01DX009 (ip), vehicle: Klucel (hydroxypropylcellulose) (HPC)",95 % of control
same,T/C,"dose: 6.25 mg/kg/injection, schedule: Q01DX009 (ip), vehicle: Klucel (hydroxypropylcellulose) (HPC)",92 % of control and 100 % of control
same,T/C,[15],97 % of control
CSc1cc(C(=O)Nc2ccc(C3=NCCN3)cc2)cc(C(=O)Nc2ccc(C3=NCCN3)cc2)c1,T/C,"dose: 2.75 mg/kg/injection, schedule: Q01DX Z (ip), vehicle: carboxymethylcellulose (CMC)",110 % of control
same,T/C,"dose: 5.5 mg/kg/injection, schedule: Q01DX Z (ip), vehicle: carboxymethylcellulose (CMC)",102 % of control
same,T/C,"dose: 11.0 mg/kg/injection, schedule: Q01DX Z (ip), vehicle: carboxymethylcellulose (CMC)",96 % of control
same,T/C,"dose: 22.0 mg/kg/injection, schedule: Q01DX Z (ip), vehicle: carboxymethylcellulose (CMC)",119 % of control
same,T/C,"dose: 31.0 mg/kg/injection, schedule: Q01DX Z (ip), vehicle: carboxymethylcellulose (CMC)",225 % of control
same,T/C,"dose: 45.0 mg/kg/injection, schedule: Q01DX Z (ip), vehicle: carboxymethylcellulose (CMC)",174 % of control
same,T/C,"dose: 62.0 mg/kg/injection, schedule: Q01DX Z (ip), vehicle: carboxymethylcellulose (CMC)",242 % of control
same,T/C,"dose: 90.0 mg/kg/injection, schedule: Q01DX Z (ip), vehicle: carboxymethylcellulose (CMC)",168 % of control
same,T/C,"dose: 125.0 mg/kg/injection, schedule: Q01DX Z (ip), vehicle: carboxymethylcellulose (CMC)",165 % of control
same,T/C,"dose: 180.0 mg/kg/injection, schedule: Q01DX Z (ip), vehicle: carboxymethylcellulose (CMC)",256 % of control
same,T/C,"dose: 250.0 mg/kg/injection, schedule: Q01DX Z (ip), vehicle: carboxymethylcellulose (CMC)",157 % of control
same,T/C,"dose: 360.0 mg/kg/injection, schedule: Q01DX Z (ip), vehicle: carboxymethylcellulose (CMC)",100 % of control
O=C(CCCC(=O)N/N=C/c1ccc(Cl)c([N+](=O)[O-])c1)N/N=C\c1ccc(Cl)c([N+](=O)[O-])c1,T/C,"dose: 50.0 mg/kg/injection, schedule: Q01DX001 (ip), vehicle: saline",96 % of control
same,T/C,[16],102 % of control
same,T/C,[17],96 % of control
same,T/C,[18],98 % of control
O=c1c2cn[nH]c2nc2ccccn12,T/C,[16],96 % of control
same,T/C,[17],94 % of control
same,T/C,[18],94 % of control
Nc1cccc2c1C(=O)c1cccc(N)c1C2=O,T/C,[15],101 % of control
same,T/C,"dose: 200.0 mg/kg/injection, schedule: Q04DX003 (ip), vehicle: Klucel (hydroxypropylcellulose) (HPC)",96 % of control
same,T/C,"dose: 400.0 mg/kg/injection, schedule: Q04DX003 (ip), vehicle: Klucel (hydroxypropylcellulose) (HPC)",96 % of control
NC(N)=N/N=C/C(=N/N=C(N)N)c1ccccc1,T/C,"dose: 30.0 mg/kg/injection, schedule: Q01DX Z (oral), vehicle: carboxymethylcellulose (CMC)",108 % of control
same,T/C,"dose: 60.0 mg/kg/injection, schedule: Q01DX Z (oral), vehicle: carboxymethylcellulose (CMC)",115 % of control
same,T/C,"dose: 120.0 mg/kg/injection, schedule: Q01DX Z (oral), vehicle: carboxymethylcellulose (CMC)",105 % of control
same,T/C,"dose: 240.0 mg/kg/injection, schedule: Q01DX Z (oral), vehicle: carboxymethylcellulose (CMC)",103 % of control
COC(=O)c1ccccc1NN=Nc1ccccc1Cl,T/C,[16],100 % of control
same,T/C,[12],105 % of control
same,T/C,[17],90 % of control
same,T/C,[13],95 % of control
same,T/C,[18],99 % of control
same,T/C,[14],94 % of control
COC(=N)C/C=C/CC(=N)OC,T/C,"dose: 100.0 mg/kg/injection, schedule: Q01DX009 (ip), vehicle: saline",94 % of control
same,T/C,"dose: 200.0 mg/kg/injection, schedule: Q01DX009 (ip), vehicle: saline",94 % of control
same,T/C,"dose: 400.0 mg/kg/injection, schedule: Q01DX009 (ip), vehicle: saline",92 % of control
O=C(CC(C[N+](=O)[O-])c1ccccc1)c1ccc(Cl)cc1 (configuration not stated),T/C,[4],96 % of control
same,T/C,[5],90 % of control
same,T/C,[6],92 % of control
C#CC(CC)(CC)NC(=O)NC(C)(C)C,T/C,"dose: 100.0 mg/kg/injection, schedule: Q04DX002 (ip), vehicle: Klucel (hydroxypropylcellulose) (HPC)",98 % of control
same,T/C,"dose: 200.0 mg/kg/injection, schedule: Q04DX002 (ip), vehicle: Klucel (hydroxypropylcellulose) (HPC)",102 % of control
same,T/C,"dose: 400.0 mg/kg/injection, schedule: Q04DX002 (ip), vehicle: Klucel (hydroxypropylcellulose) (HPC)",86 % of control
COC1CCC2CC3C4Cc5cn[nH]c5C5OC1C2C54CCN3C (configuration not stated),T/C,[12],95 % of control
same,T/C,[13],86 % of control
